Values quoted from earlier work in article PMC5478869, “New Hydroxycinnamic Acid Esters as Novel 5-Lipoxygenase Inhibitors That Affect Leukotriene Biosynthesis” (Mediators of Inflammation, 2017).

Tested on: arachidonic acid release
Conditions: cited from earlier work

## O=C(/C=C/c1ccc(O)c(O)c1)OCCc1ccccc1 [CAPE (2), Caffeic acid phenethyl ester, reference compound]
  Inhibition of liberation of cellular arachidonic acid (previously shown): previously shown to inhibit the liberation of cellular arachidonic acid
